Common to all, as to format: biochemical, Neofusicoccum parvum
In one assay the test system is T1, Bgl3.
T1 construct: native extracellular enzyme purified from culture supernatant (ammonium sulphate, HiTrap Q FF, native gel extraction); about 65 kDa; GH3 only inferred by authors
Briefly: 4-nitrophenol release at […] nm, Lineweaver-Burk plot. As to conditions: standard assay described as 50 mM sodium acetate pH 5.0, 55 °C; 4-NPG 0-13.28 mM.

For a further assay, the system named is T2, Bgl1.
T2 construct: native extracellular enzyme purified from culture supernatant, extracted from native gel; 240 kDa on native PAGE
Nature of the assay: 4-NPG hydrolysis, absorbance at […] nm, glucose […]. The note with it: product inhibition; substrate 4-NPG; standard assay described as 50 mM sodium acetate pH 5.0, 55 °C.

The test system of another assay is T3, Bgl2.
T3 construct: native extracellular enzyme purified from culture supernatant, extracted from native gel; 230 kDa on native PAGE
Briefly: 4-NPG hydrolysis, absorbance at […] nm, glucose […]. The note with it: product inhibition; substrate 4-NPG; standard assay described as 50 mM sodium acetate pH 5.0, 55 °C.

As for `O=[N+]([O-])c1ccc(O[C@@H]2O[C@H](CO)[C@@H](O)[C@H](O)[C@H]2O)cc1` [4-nitrophenyl-β-D-glucopyranoside], in the assay on Bgl3, the Michaelis-Menten constant (Km) (usually the concentration of substrate that gives half-maximal velocity) stood at 1180 µM.
As for `OC[C@H]1OC(O)[C@H](O)[C@@H](O)[C@@H]1O` (stereo partly drawn) [glucose], the IC50 – broadly, the midpoint of a concentration-inhibition curve – worked out at 2.6 mM in the assay with Bgl1 and 22.6 mM with Bgl2.

The values are drawn from paper PMC10060427, “A glucose tolerant β-glucosidase from a newly isolated Neofusicoccum parvum strain F7: production, purification, and characterization” (Scientific Reports, 2023).
